Data on 6 compounds can be found in patent publication US11091445B2, “Compounds, process for obtaining the compounds, pharmaceutical composition, use of the compounds and method for treating psychiatric disorders and/or sleep disorders” (Aché Laboratórios Farmacêuticos S.A., priority 2016, dated 2021).

The target of one data set is MT1 receptor (Homo sapiens (Human), UniProt P48039). Briefly: MT1 functional assay.
The next data set has as its system CYP2C9 and CYP2C19. Conditions: cited from earlier work.
Another data set has as its target MT2 receptor (Homo sapiens (Human), UniProt P49286). Briefly: MT2 functional assay. Format: cell-based.
Data set [1] relates to cryopreserved hepatocytes from mice (CD-1 males). Description: Intrinsic clearance in cryopreserved mouse hepatocytes. Conditions: 37° C. Format: in vitro ADME. The procedure:
(§1) Cryopreserved hepatocytes from humans, rats (Sprague-Dawley males) and from mice (CD-1 males) were used for incubation at different times (0, 0.5, 1, 1.5, 2 hours) at 37° C. followed by HPLC-MS/MS detection. The aim was to verify the clearance time of the test substance on hepatocytes. The experiment was performed on a 96-well plate and the cryopreserved hepatocytes were thawed and resuspended in Krebs-Heinslet buffer (pH 7.3). The reaction was started by adding each test compound to each cell suspension and performing the incubation at the times indicated above. The reaction was quenched with addition of acetonitrile in the wells and detection by HPLC-MS/MS (mass spectrometry). MS/MS is performed by combining two mass detectors into a single instrument.

Data set [2] has as its system cryopreserved hepatocytes from rats (Sprague-Dawley males). Description: Intrinsic clearance in cryopreserved rat hepatocytes. Conditions: 37° C. Format: in vitro ADME. The procedure:
as §1

For data set [3], the target named is T1, CYP1A2 (Homo sapiens (Human), UniProt P05177). Conditions: cited from earlier work.
T1 sequence (P05177 whole entry): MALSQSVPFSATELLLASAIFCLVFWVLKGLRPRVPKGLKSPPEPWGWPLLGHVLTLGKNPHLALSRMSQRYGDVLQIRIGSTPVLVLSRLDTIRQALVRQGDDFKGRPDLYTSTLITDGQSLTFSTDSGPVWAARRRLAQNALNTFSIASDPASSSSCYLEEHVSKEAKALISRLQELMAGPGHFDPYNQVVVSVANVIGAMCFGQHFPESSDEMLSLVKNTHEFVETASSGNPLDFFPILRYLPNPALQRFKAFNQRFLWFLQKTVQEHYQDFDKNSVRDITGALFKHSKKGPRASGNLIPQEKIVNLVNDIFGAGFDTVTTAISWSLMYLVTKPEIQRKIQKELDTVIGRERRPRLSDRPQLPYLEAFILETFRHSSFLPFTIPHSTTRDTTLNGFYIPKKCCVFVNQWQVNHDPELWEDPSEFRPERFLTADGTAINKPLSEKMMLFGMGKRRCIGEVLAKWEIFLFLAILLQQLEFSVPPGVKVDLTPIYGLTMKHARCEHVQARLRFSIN
Data set [4] deals with T1, CYP1A2. Briefly: CYP inhibition, fluorogenic substrate. The format is in vitro ADME. From the text: The CYP inhibition test used fluorogenic substrates specific to each CYP to check for inhibition thereof by detection of the expected metabolite using a fluorimetric method. Recombinant CYPs (CYP2B6, CYP2C8, CYP2C9, CYP2C9, CYP2C19, CYP2D6, CYP3A4) from specific humans for each cytochrome family, subfamily and polypeptide were used. The following were used as substrates: CEC (3-Cyano-7-Ethoxycoumarin) which forms as metabolite CHC (3-Cyano-7-Hydroxycoumarin); EFC (7-Ethoxy-4-trifluoromethyl coumarin), forming the metabolite HFC (7-Hydroxytrifluoromethylcoumarin); DBF (Dibenzylfluorescein) and its respective fluorescein metabolite; MFC (7-Methoxy-4-trifluoromethylcoumarin) which forms the metabolite HFC (7-Hydroxytrifluoromethylcoumarin); BFC (7-Benzyloxy-Trifluoromethylcoumarin) and its metabolite HFC; and BzRes (benzyloxyresorufin) to form resofurine. The detection of the metabolite was done with a fluorimetric method: analytical technique to identify and characterize the amount of substance by excitation using a beam of ultraviolet light and measurement of the emitted fluorescence. For detection, a 96-well plate was used. […] Incubations were performed between 20-50 minutes at 37° C. according to the specific parameter of each fluorogenic substrate, for the evaluated component. Fluorescence at each well was detected before and after the incubation period.

Data set [5] deals with cryopreserved human hepatocytes. Description: Intrinsic clearance in cryopreserved human hepatocytes. Conditions: 37° C. Format: in vitro ADME. The procedure: as §1
The nature of data set [6]: Pharmacokinetics in CD-1 mouse, I.V. and oral. The format is in vivo. Conditions: intravenous. Here is the method:
PK tests were performed with CD-1 mice, using 4 animals per molecule tested, 2 animals for pharmacokinetic analysis by intravenous (IV) administration and 2 animals for oral administration. The treatment was carried out in a single dose: I.V. group with dose of 1 mg/kg and Oral group with dose of 10 mg/kg. […] Blood collection was performed after euthanasia at 08 defined time points and at 24 hours post-dose. The pharmacokinetic analysis parameters detected for Group IV were: half-life (t½), drug concentration at time zero (C0), last measurable plasma concentration (AUClast), area under the plasma concentration curve extrapolation percentage (AUC % ext), area under the plasma concentration curve extrapolation to infinity (AUCinf), volume of distribution (Vz), steady state volume of distribution (Vss), clearance (CL) and mean residence time (MRT). The parameters evaluated for the Oral group were: bioavailability (F %), maximum concentration reached (Cmax), time to reach maximum plasma concentration (Tmax), last measurable plasma concentration (AUClast), area under the plasma concentration curve extrapolation percentage (AUC % ext), area under the plasma concentration curve extrapolation to infinity (AUCinf), area under the plasma concentration curve extrapolation to infinity versus dose (AUCinf/Dose), half-Life (t½), and mean residence time (MRT).

Another data set has as its system melatonin receptors. Conditions: literature (Depreux et al. 1994); cited from earlier work.

Where only a bound is given, the exact number is not on record here.

Chain of MT2 receptor (P49286 whole entry): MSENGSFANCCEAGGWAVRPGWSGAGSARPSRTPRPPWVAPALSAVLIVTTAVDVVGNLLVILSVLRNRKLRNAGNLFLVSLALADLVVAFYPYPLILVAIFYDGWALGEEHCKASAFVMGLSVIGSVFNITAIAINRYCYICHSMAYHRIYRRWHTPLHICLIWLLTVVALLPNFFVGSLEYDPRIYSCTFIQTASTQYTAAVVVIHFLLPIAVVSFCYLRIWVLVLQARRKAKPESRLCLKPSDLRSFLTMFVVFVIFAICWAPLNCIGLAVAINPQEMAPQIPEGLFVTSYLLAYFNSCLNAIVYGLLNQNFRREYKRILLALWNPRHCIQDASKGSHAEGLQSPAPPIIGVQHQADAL
Chain of MT1 receptor (P48039 whole entry): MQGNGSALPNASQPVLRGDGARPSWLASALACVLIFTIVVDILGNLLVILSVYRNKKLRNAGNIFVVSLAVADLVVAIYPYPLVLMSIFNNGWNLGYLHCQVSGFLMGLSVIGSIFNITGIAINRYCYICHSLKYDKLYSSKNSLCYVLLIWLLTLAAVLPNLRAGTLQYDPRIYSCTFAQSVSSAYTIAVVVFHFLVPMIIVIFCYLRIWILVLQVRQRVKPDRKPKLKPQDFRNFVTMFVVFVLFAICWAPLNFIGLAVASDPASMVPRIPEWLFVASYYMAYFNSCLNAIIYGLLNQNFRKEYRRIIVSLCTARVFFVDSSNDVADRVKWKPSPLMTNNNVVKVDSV

On to `COc1ccc2cccc(CCNC(C)=O)c2c1` [IA2-76 (agomelatine), agomelatine], for which the “intrinsic activity at MT1” value on MT1 receptor was “agonist”. Besides, the “fraction metabolized by CYP2C9 and CYP2C19” value in the data set with CYP2C9 and CYP2C19 is 10%. Moreover, the “intrinsic activity at MT2” value on MT2 receptor is recorded as “agonist”. Also, in [1], the “Intrinsic clearance half-life, Mouse CD-1 hepatocytes” value was 0.417 h. In addition, the “Intrinsic clearance half-life, Rat Sprague-Dawley hepatocytes” value in [2] was 0.833 h. In addition, on CYP1A2 [3], the “fraction metabolized in the liver by CYP1A2” value is “Around 90%”. For the same compound, the “affinity to CYP isoforms, specially CYP1A2” value on CYP1A2 [4] was “high affinity”. In addition, the “Intrinsic clearance half-life, Human hepatocytes” value in data set [5] was found to be 0.8 h.

Take `CCOc1nc2ccc(OC)cc2n1CCCNC(C)=O` [IA2-120]: in data set [6], the “C0 compared to agomelatine” value is listed as “higher” and the “Clearance compared to agomelatine” value is on record as “lower”. In addition, in data set [1], the “Intrinsic clearance half-life, Mouse CD-1 hepatocytes” value was greater than 2 h. Moreover, in data set [2], the “Intrinsic clearance half-life, Rat Sprague-Dawley hepatocytes” value was determined as 0.883 h. Besides, the “Intrinsic clearance half-life, Human hepatocytes” value in [5] is greater than 2 h.

`CCOc1nc2cc(Cl)c(OC)cc2n1CCNC(C)=O` [IA2-121]: in data set [6], the “C0 compared to agomelatine” value is on record as “higher” and the “Clearance compared to agomelatine” value is “lower”. Moreover, in data set [1], the “Intrinsic clearance half-life, Mouse CD-1 hepatocytes” value was greater than 2 h. The “Intrinsic clearance half-life, Rat Sprague-Dawley hepatocytes” value in data set [2] was found to be 0.867 h. Moreover, the “Intrinsic clearance half-life, Human hepatocytes” value in [5] is greater than 2 h.

For the compound `CCOc1nc2cc(Cl)c(OC)cc2n1CCCNC(C)=O` [IA2-142], in [6], the “C0 compared to agomelatine” value is “higher” and the “Clearance compared to agomelatine” value is “lower”. Besides, in [1], the “Intrinsic clearance half-life, Mouse CD-1 hepatocytes” value was greater than 2 h. In data set [2], the “Intrinsic clearance half-life, Rat Sprague-Dawley hepatocytes” value was greater than 2 h. Besides, the “Intrinsic clearance half-life, Human hepatocytes” value in data set [5] is greater than 2 h.

With `COc1cc2c(cc1Cl)nc(OC)n2CCNC(C)=O` [IA2-143], in data set [6], the “C0 compared to agomelatine” value was “higher” and the “Clearance compared to agomelatine” value is “lower”. Moreover, in [2], the “Intrinsic clearance half-life, Rat Sprague-Dawley hepatocytes” value came to 1.8 h.

In the case of `COc1ccc2ncn(CCNC(C)=O)c2c1` [N-[2-(6-methoxybenzimidazol-1-yl)-ethyl]acetamide], the “affinity lower than melatonin affinity” value in the data set with melatonin receptors is “approximately 3,200 times”.
